Measurements reported in US8598160B2, “Cycloalkyl lactame derivatives as inhibitors of 11-beta-hydroxysteroid dehydrogenase 1” (Vitae Pharmaceuticals, Inc., priority 2008, dated 2013).
pIC50: −log10 of the molar value.

Target: human 11β-HSD1 (Homo sapiens, UniProt P28845)
Test: biochemical
Conditions: for inhibition at 0.1111 µM: read-out: Average % inhibition at 111.1 nM; for inhibition at 0.1 µM: read-out: Average % inhibition at 100 nM
Description: All reactions were carried out at rt in 96 well clear flexible PET Microbeta plates (PerkinElmer). […] The reaction was stopped by adding 50 μl of the SPA beads suspension containing 10 μM 18β-glycyrrhetinic acid, 5 mg/ml protein A coated YSi SPA beads (GE Healthcare) and 3.3 μg/ml of anti-cortisol antibody (East Coast Biologics) in Superblock buffer (Bio-Rad). The plates were shaken for 120 minutes at rt, and the SPA signal corresponding to [^3H]cortisol was measured on a Microbeta plate reader.

Sequence of human 11β-HSD1 (P28845 whole entry): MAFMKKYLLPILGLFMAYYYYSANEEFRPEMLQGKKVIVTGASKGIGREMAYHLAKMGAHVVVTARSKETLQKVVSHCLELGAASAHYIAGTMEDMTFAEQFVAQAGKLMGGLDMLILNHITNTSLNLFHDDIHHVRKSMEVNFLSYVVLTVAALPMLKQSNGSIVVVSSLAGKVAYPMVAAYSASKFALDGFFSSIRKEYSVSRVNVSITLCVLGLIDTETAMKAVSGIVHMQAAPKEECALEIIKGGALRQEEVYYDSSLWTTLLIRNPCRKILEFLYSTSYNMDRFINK

pIC50	inhibition at 0.1111 µM [%]	inhibition at 0.1 µM [%]	Compound
6.00 to 7.00	-5.9		O=C1O[C@@H](c2ccccc2)CCN1c1cccc2ccccc12 [Example 3, (R)-3-(naphthalen-1-yl)-6-phenyl-1,3-oxazinan-2-one]
> 7.00		90.1	C[C@@H](c1ccc(Br)cc1)N1CCC(c2ccc(F)cc2)OC1=O (mixture of isomers) [Example 7, 3-((1S)-1-(4-bromophenyl)ethyl)-6-(4-fluorophenyl)-1,3-oxazinan-2-one]
> 7.00		94.5	C[C@@H](c1ccc(-c2ccc(F)cc2F)cc1)N1CCC(c2ccccc2)CC1=O (mixture of isomers) [Example 5, 1-((1S)-1-(2′,4′-difluorobiphenyl-4-yl)ethyl)-4-phenylpiperidin-2-one]
> 7.00		89.4	COc1ccc([C@H](C)N2CCC(c3ccc(F)cc3)CC2=O)cc1 (stereo partly drawn) [Example 6, 4(-4-fluorophenyl)-1-((1S)-1-(4-methoxylphenyl)ethyl)piperidin-2-one]
> 7.00		100	C[C@@H](c1ccc(Br)cc1)N1CCCC(c2ccccc2)NC1=O (stereo partly drawn) [Example 8, 1-((S)-1-(4-bromophenyl)ethyl)-4-phenyl-1,3-diazepan-2-one]
6.00 to 7.00	22.5		O=C1OC(c2ccccc2Cl)CCN1c1cccc(Br)c1 (stereo not drawn) [Example 4, 3-(3-bromophenyl)-6-(2-chlorophenyl)-1,3-oxazinan-2-one]
